Assay results: patent US8455399B2, “N-(4-perfluoroalkyl-phenyl)-4-triazolyl-benzamides as insecticides” (Syngenta Crop Protection LLC, priority 2009, dated 2013)

What was measured:
Assay type in all cases: in vivo
Diabrotica balteata = Diabrotica balteata (corn root worm) artificial diet test; conditions: 120 h, 200 ppm (concentration in well 18 ppm), L2 larvae, larval mortality and growth regulation after 5 days
Experimental: Diabrotica Balteata (Corn Root Worm): A 24-well microtiter plate (MTP) with artificial diet was treated with test solutions at an application rate of 200 ppm (concentration in well 18 ppm) by pipetting. After drying, the MTP's were infested with L2 larvae (6-10 per well). After an incubation period of 5 days, samples were checked for larval mortality and growth regulation.

Tetranychus urticae = Tetranychus urticae (two-spotted spider mite) leaf disc spray test; conditions: foliar, 192 h, 200 ppm sprayed on bean leaf discs, mite populations of mixed ages, egg, larval and adult mortality 8 days later
Excerpt: Tetranychus Urticae (Two-Spotted Spider Mite): Bean leaf discs on agar in 24-well microtiter plates were sprayed with test solutions at an application rate of 200 ppm. After drying, the leaf discs are infested with mite populations of mixed ages. 8 days later, discs are checked for egg mortality, larval mortality, and adult mortality.

Heliothis virescens = Heliothis virescens (tobacco budworm) egg/artificial diet test; conditions: 96 h, 200 ppm (concentration in well 18 ppm), eggs 0-24 h old on artificial diet, egg mortality, larval mortality, growth regulation after 4 days
Experimental: Heliothis Virescens (Tobacco Budworm): Eggs (0-24 h old) were placed in 24-well microtiter plate on artificial diet and treated with test solutions at an application rate of 200 ppm (concentration in well 18 ppm) by pipetting. After an incubation period of 4 days, samples were checked for egg mortality, larval mortality, and growth regulation.

Plutella xylostella = Plutella xylostella (diamond back moth) artificial diet test; conditions: 144 h, 200 ppm (concentration in well 18 ppm), L2 larvae, larval mortality and growth regulation after 6 days
Experimental: Plutella Xylostella (Diamond Back Moth): 24-well microtiter plate (MTP) with artificial diet was treated with test solutions at an application rate of 200 ppm (concentration in well 18 ppm) by pipetting. After drying, the MTP's were infested with L2 larvae (7-12 per well). After an incubation period of 6 days, samples were checked for larval mortality and growth regulation.

Spodoptera littoralis = Spodoptera littoralis (Egyptian cotton leafworm) leaf disc spray test; conditions: foliar, 72 h, 200 ppm sprayed on cotton leaf discs, 5 L1 larvae, mortality, feeding behavior, growth regulation 3 days after treatment
Excerpt: Spodoptera Littoralis (Egyptian Cotton Leafworm): Cotton leaf discs were placed on agar in a 24-well microtiter plate and sprayed with test solutions at an application rate of 200 ppm. After drying, the leaf discs were infested with 5 L1 larvae. The samples were checked for mortality, feeding behavior, and growth regulation 3 days after treatment (DAT).

Thrips tabaci = Thrips tabaci (onion thrips) leaf disc spray test; conditions: foliar, 168 h, 200 ppm sprayed on sunflower leaf discs, population of mixed ages, mortality after 7 days
Experimental: Thrips Tabaci (Onion Thrips): Sunflower leaf discs were placed on agar in a 24-well microtiter plate and sprayed with test solutions at an application rate of 200 ppm. After drying, the leaf discs were infested with an […] population of mixed ages. After an incubation period of 7 days, samples were checked for mortality.

Measured: pest or weed control at 200 ppm

Cc1cc(C(F)(C(F)(F)F)C(F)(F)F)cc(C)c1NC(=O)c1ccc(-n2cncn2)c([N+](=O)[O-])c1 [A1, N-[2,6-Dimethyl-4-(1,2,2,2-tetrafluoro-1-trifluoromethylethyl)phenyl]-3-nitro-4-(1,2,4-triazol-1-yl)benzamide]
not listed: Thrips tabaci
≥ 80%: all other assays above

CCc1cc(C(F)(C(F)(F)F)C(F)(F)F)cc(CC)c1NC(=O)c1ccc(-n2cncn2)c([N+](=O)[O-])c1 [A2, N-[2,6-Diethyl-4-(1,2,2,2-tetrafluoro-1-trifluoromethylethyl)phenyl]-3-nitro-4-(1,2,4-triazol-1-yl)benzamide]
≥ 80%: Diabrotica balteata | Spodoptera littoralis

CCc1cc(C(F)(C(F)(F)F)C(F)(F)C(F)(F)F)cc(C)c1NC(=O)c1ccc(-n2cncn2)c([N+](=O)[O-])c1 (stereo not shown) [A3, N-[2-Ethyl-4-(1,2,2,3,3,3-hexafluoro-1-trifluoromethylpropyl)-6-methylphenyl]-3-nitro-4-(1,2,4-triazol-1-yl)benzamide]
≥ 80%: all assays above

O=C(Nc1c(Br)cc(C(F)(C(F)(F)F)C(F)(F)C(F)(F)F)cc1Br)c1ccc(-n2cncn2)c([N+](=O)[O-])c1 (stereo not shown) [A4, N-[2,6-dibromo-4-(1,2,2,3,3,3-hexafluoro-1-trifluoromethylpropyl)phenyl]-3-nitro-4-(1,2,4-triazol-1-yl)benzamide]
≥ 80%: all assays above

Cc1cc(C(F)(C(F)(F)F)C(F)(F)F)cc(C)c1NC(=O)c1ccc(-n2cncn2)c(N)c1 [B1, 3-Amino-N-[2,6-dimethyl-4-(1,2,2,2-tetrafluoro-1-trifluoromethylethyl)phenyl]-4-(1,2,4-triazol-1-yl)benzamide]
≥ 80%: Tetranychus urticae | Heliothis virescens

CCc1cc(C(F)(C(F)(F)F)C(F)(F)F)cc(CC)c1NC(=O)c1ccc(-n2cncn2)c(N)c1 [B2, 3-amino-N-[2,6-diethyl-4-(1,2,2,2-tetrafluoro-1-trifluoromethylethyl)phenyl]-4-(1,2,4-triazol-1-yl)benzamide]
not listed: Thrips tabaci
≥ 80%: all other assays above

CCc1cc(C(F)(C(F)(F)F)C(F)(F)C(F)(F)F)cc(C)c1NC(=O)c1ccc(-n2cncn2)c(N)c1 (stereo not shown) [B3, 3-Amino-N-[2-ethyl-4-(1,2,2,3,3,3-hexafluoro-1-trifluoromethylpropyl)-6-methyl-phenyl]-4-(1,2,4-triazol-1-yl)benzamide]
not listed: Thrips tabaci
≥ 80%: all other assays above

Nc1cc(C(=O)Nc2c(Br)cc(C(F)(C(F)(F)F)C(F)(F)C(F)(F)F)cc2Br)ccc1-n1cncn1 (stereo not shown) [B4, 3-amino-N-[2,6-dibromo-4-(1,2,2,3,3,3-hexafluoro-1-trifluoromethylpropyl)-phenyl]-4-(1,2,4-triazol-1-yl)benzamide]
≥ 80%: Tetranychus urticae | Heliothis virescens | Plutella xylostella | Spodoptera littoralis

Cc1cc(C(F)(C(F)(F)F)C(F)(F)F)cc(C)c1NC(=O)c1ccc(-n2cncn2)c(NC(=O)c2ccc(F)cc2)c1 [D1, 3-(4-Fluorobenzoylamino)-N-[2,6-dimethyl-4-(1,2,2,2-tetrafluoro-1-trifluoromethyl-ethyl)phenyl]-4-(1,2,4-triazol-1-yl)benzamide]
≥ 80%: Diabrotica balteata | Heliothis virescens | Plutella xylostella | Spodoptera littoralis

CCc1cc(C(F)(C(F)(F)F)C(F)(F)F)cc(CC)c1NC(=O)c1ccc(-n2cncn2)c(NC(=O)c2ccc(F)cc2)c1 [D2, 3-(4-fluorobenzoylamino)-N-[2,6-diethyl-4-(1,2,2,2-tetrafluoro-1-trifluoromethylethyl)phenyl]-4-(1,2,4-triazol-1-yl)benzamide]
not listed: Tetranychus urticae
≥ 80%: all other assays above

CCc1cc(C(F)(C(F)(F)F)C(F)(F)C(F)(F)F)cc(C)c1NC(=O)c1ccc(-n2cncn2)c(NC(=O)c2cccc([N+](=O)[O-])c2C)c1 (stereo not shown) [D3, 3-(2-Methyl-3-nitrobenzoylamino)-N-[2-ethyl-4-(1,2,2,3,3,3-hexafluoro-1-trifluoromethylpropyl)-6-methylphenyl]-4-(1,2,4-triazol-1-yl)benzamide]
≥ 80%: Tetranychus urticae | Heliothis virescens | Plutella xylostella | Spodoptera littoralis

CCc1cc(C(F)(C(F)(F)F)C(F)(F)C(F)(F)F)cc(C)c1NC(=O)c1ccc(-n2cncn2)c(NC(=O)c2ccc(C#N)cc2)c1 (stereo not shown) [D5, 3-(4-Cyanobenzoylamino)-N-[2-ethyl-4-(1,2,2,3,3,3-hexafluoro-1-trifluoromethyl-propyl)-6-methylphenyl]-4-(1,2,4-triazol-1-yl)benzamide]
≥ 80%: Heliothis virescens | Plutella xylostella | Spodoptera littoralis

O=C(Nc1cc(C(=O)Nc2c(Br)cc(C(F)(C(F)(F)F)C(F)(F)C(F)(F)F)cc2Br)ccc1-n1cncn1)c1ccc(F)cc1 (stereo not shown) [D7, 3-(4-Fluorobenzoylamino)-N-[2,6-dibromo-4-(1,2,2,3,3,3-hexafluoro-1-trifluoromethylpropyl)phenyl]-4-(1,2,4-triazol-1-yl)benzamide]
not listed: Tetranychus urticae
≥ 80%: all other assays above

N#Cc1ccc(C(=O)Nc2cc(C(=O)Nc3c(Br)cc(C(F)(C(F)(F)F)C(F)(F)C(F)(F)F)cc3Br)ccc2-n2cncn2)cc1 (stereo not shown) [D8, 3-(4-cyanobenzoylamino)-N-[2,6-dibromo-4-(1,2,2,3,3,3-hexafluoro-1-trifluoromethylpropyl)phenyl]-4-(1,2,4-triazol-1-yl)benzamide]
not listed: Tetranychus urticae
≥ 80%: all other assays above
